Here are results for six compounds from patent US5516803A, “Composition comprising a tramadol material and a non-steroidal anti-inflammatory drug” (priority 1995, dated 1996).

Structures are written as SMILES.

For data set [1] the following is noted: cited from earlier work; for intensity of pain relieved / tolerance, addiction and toxicity: compared with opioid analgesics; for opioid side effects: Goodman and Gilman's, 8th edition.
Data set [2] has as its system acetylcholine-induced abdominal constriction. Briefly: prevention of acetylcholine-induced abdominal constriction in mice (analgesic activity, oral). Type of data set: in vivo, male CD1 mice. The protocol:
[…]. The mice were all dosed orally with tramadol hydrochloride (calculated as the base), which was completely dissolved in distilled water, and ibuprofen (calculated as the base), which was completely dissolved in distilled water or in distilled water containing 2% by volume of Tween 80 containing 100% polysorbate 80. The dosing volume was 10 mL/kg.
The procedure used in detecting and comparing the analgesic activity of different classes of analgesic drugs for which there is a good correlation with human efficacy is the prevention of acetylcholine-induced abdominal constriction in mice (H. Collier et al., Br. J. Pharmacol., 32, 295 (1968)).
Mice, incubated with various doses of tramadol hydrochloride alone, ibuprofen alone, combined doses of tramadol hydrochloride and ibuprofen, or vehicle such as distilled water, or distilled water containing 2% by volume of Tween 80, were injected intraperitoneally with a challenge dose of acetylcholine bromide. […]. The mice were observed 10 minutes for the presence or absence of the abdominal constriction response beginning immediately after receiving the acetylcholine dose, which was 30 minutes after receiving the oral administration of tramadol hydrochloride,ibuprofen, combined doses of tramadol hydrochloride and ibuprofen, or vehicle. Each mouse was used only once.
The analysis of possible superadditivity for the compositions at each fixed ratio was determined as disclosed by R. J. Tallarida et al., Life Sci., 45, 947 (1989). This procedure involved the determination of the total amount in the mixture that is required to produce a specified level of effect, such as 50% (ED50mix), and the corresponding total amount that would be expected under simple additivity (ED50add). Where it was established that ED50mix <ED50add for a specific fixed-ratio, then that composition ratio was superadditive. Both the quantities ED50mix and ED50add were random variables; ED50mix was estimated from the dose-response curve for a specific fixed-ratio; ED50add was obtained by combining the ED50 estimates for the two drugs under additivity. ED50mix was then compared to ED50add via a Student's t-test. […]. The interaction between tramadol and ibuprofen was determined at precise dosage ratios of tramadol hydrochloride and ibuprofen. Multiple (typically 4-6) coded doses of each selected combination were studied for analgesic effectiveness after 30 minutes using an experimental design which permitted the complete randomization of the separate dosage forms tested.
In FIG. 1, the diagonal line joining the ED50 values of the two drugs given separately represents the simple additivity of effects at different component ratios. The dotted lines adjacent to the diagonal line define the 95% confidence interval. ED50 values falling under the curve (between the line and the origin) indicate superadditivity, i.e., unexpected enhancement of effects. The diagonal dashed lines radiating from the origin represent the dose ratios of ibuprofen to tramadol hydrochloride used in mice receiving the combined drug dosages. The bars through the ED50 points for the tramadol and ibuprofen composition represent the 95% confidence intervals of the ED50 value. […]

Take `CC(=O)Oc1ccccc1C(=O)O` [aspirin]: in data set [1], the “intensity of pain relieved” value was “only useful in relieving pain of moderate intensity”; the “tolerance, addiction and toxicity” value was “not subject to the tolerance, addiction and toxicity of the opioid analgesics”.
Turning to `COc1ccc2c3c1O[C@H]1C(=O)CC[C@H]4[C@@H](C2)N(C)CC[C@]314` [hydrocodone], in data set [1], the opioid side effects result is “respiratory depression, constipation, tolerance and abuse liability”.
As a reminder, the ED50 is the dose that gives a 50% effect, or the effect in half of the subjects. With `CC(C)Cc1ccc(C(C)C(=O)O)cc1` (stereo not drawn) [ibuprofen, 2-(p-isobutylphenyl)propionic acid], the “intensity of pain relieved” value in data set [1] is “only useful in relieving pain of moderate intensity”. Besides, the “tolerance, addiction and toxicity” value in data set [1] was “not subject to the tolerance, addiction and toxicity of the opioid analgesics”. Moreover, the ED50 in data set [2] (Mus musculus, 0.5 h, drug alone, oral, 30 min, range in parentheses 95% CI) worked out at 33.5 mg/kg. In addition, the analgesia in data set [2] (tramadol 0, ibuprofen 10 mg/kg, p.o., 30 min) is recorded as 2/15; in data set [2] (tramadol 0, ibuprofen 20 mg/kg, p.o., 30 min) it was 4/15; in data set [2] (tramadol 0, ibuprofen 40 mg/kg, p.o., 30 min), 8/15; in data set [2] (tramadol 0, ibuprofen 80 mg/kg, p.o., 30 min), 13/15; in data set [2] (tramadol 0, ibuprofen 160 mg/kg, p.o., 30 min), 14/15.
Take `COc1ccc2c3c1O[C@H]1[C@@H](O)C=C[C@H]4[C@@H](C2)N(C)CC[C@@]341` [codeine]: in data set [1], the opioid side effects result is “respiratory depression, constipation, tolerance and abuse liability”.
Consider `COc1cccc(C2(O)CCCCC2CN(C)C)c1` (single isomer, unassigned) [tramadol, (1R, 2R or 1S, 2S)-2-[(dimethylamino)methyl]-1-(3-methoxyphenyl)cyclohexanol], for which the “ED50 value for drug alone” value in data set [2] (drug alone, oral, 30 min, range in parentheses 95% CI) is given as 5.5(4.8-6.4) mg/kg. For the same compound, the “ED50 at 30 min (95% CI's), Tramadol” value in data set [2] (p.o., tramadol component (calculated as base), Table I) was 5.5 mg/kg.
`COc1ccc2c3c1O[C@H]1C(=O)CC[C@@]4(O)[C@@H](C2)N(C)CC[C@]314` [oxycodone]: in data set [1], the opioid side effects entry was “respiratory depression, constipation, tolerance and abuse liability”.
